# According to patent publication US20110160158A1, “METHODS OF TREATMENT OF BIPOLAR DISORDER” (REPLIGEN CORPORATION, priority 2008, published 2011):
# Assays:
# [1] = test system: patients with Bipolar I Disorder, Most Recent Episode Depressed; assay: Six-week double blind placebo-controlled dose-escalation study of uridine in bipolar I depression: MADRS; format: in vivo, human; settings: for True difference in mean MADRS between groups (uridine vs placebo): week 6; for Mean change of MADRS from baseline (treatment response), percent: total group; for Average improvement on MADRS over placebo: weeks 2-6
# [2] = test system: patients with Bipolar I Disorder, Most Recent Episode Depressed; assay: Same six-week study: Clinical Global Impression for bipolar disorder (CGI-BP-S / CGI-BP-C); format: in vivo, human; settings: for Average CGI-C-BP (Depression) / Average CGI-C-BP (Overall): 7-point scale, 4 = no change, lower = improved
# Description: The CGI-BP scale is a modification of the clinical global impression for use in bipolar disorder as a global assessment of patient severity and change of status (Spearing et al., 1997, Psychiatry Res., 73:159-171). The CGI-BP-S rates the severity of the illness on a 7 point scale. The CGI-BP-C rates the change in the severity of disease compared to baseline. This also uses a 7 point scale, anchored by a score of 4 which correlates to no change since the initiation of treatment. Lower scores correspond to improvement, higher to worsening.
# (§1) A six-week, double blind, placebo-controlled, dose-escalation study was performed to assess the safety and efficacy of uridine in bipolar I depression. Eight-four (84) patients of both sexes were enrolled at twelve sites, randomized on a 1:1 basis to receive either placebo or uridine. To decrease the probability of a false negative result, uridine or placebo were given as monotherapy, and no concurrent bipolar medications, including mood stabilizers, atypical antipsychotics, antidepressants, anticonvulsants or other psychotropic medications were allowed during the study. Patients taking such medications were tapered gradually during the 28 days prior to initiation of the trial. Patients were evaluated each week over the 6-week trial period, with an extensive intervention plan for any patient having exacerbation of bipolar or depressive symptoms. After the trial period, patients were eligible to initiate therapy for bipolar disease and a follow-up visit occurred at week ten.
# Informed consent was provided by all patients.
# Subjects in the uridine treatment group were given either 2 g per day (low dose) or 4 g per day (high dose) of uridine. Subjects in the placebo group were given tablets of identical size and appearance with identical dosing instructions.
# A dose of 1 g orally twice daily (2 g/day) was chosen to initiate treatment, with an increase to 2 g orally twice daily (4 g/day) in the absence of clinical improvement. On Day 1, all patients received a single dose of either placebo or uridine (2 g). This loading dose was done in order to compare pharmacokinetics of uridine at study start and end. Beginning on Day 2, patients received either placebo and uridine at a dose of 2 g/day administered as 1 g orally twice daily (2 tablets twice daily) for one week. At the Day 8 visit, the dose was increased to 4 g/day administered as 2 g orally twice daily (4 tablets twice daily) if there had been no serious untoward drug-related adverse events, and if the subject had less than a 25% improvement on the MADRS from baseline (Day 1). Patients that remained on 2 g/day were increased to 4 g/day at a subsequent visit if the improvement from baseline on the MADRS was less than 25%. Likewise, subjects having adverse events at the high dose were decreased to the low dose at the discretion of the investigator. On Day 43, all patients received a single dose of either placebo or uridine administered as 2 g orally twice daily (4 tablets twice daily), regardless of dose regimen. This was the patients' last dose of study drug.
# The CGI-BP is a clinical impression scale that has been adapted for bipolar disorder and is comprised of an overall score, a depression score and a mania score. The CGI in this study used the severity of disease (CGI-BP-S) at study day 1 as the anchor point and the change from baseline (CGI-BP-C) in subsequent evaluations. Each assessment was intended to measure the change from the study start. The severity of disease (baseline) was similar between groups (Uridine=4.48; Placebo=4.68, n.s.), which are similar in magnitude to published efficacy trials in bipolar I depression (Brown et al., 2006, J. Clin. Psychiatry, 67:1025-33; Calabrese et al., 1999, J. Clin. Psychiatry, 60:79-88; Thase et al., 2006, J. Clin. Psychiatry, 26:600-609; Tohen et al., 2003, Arch. Gen. Psychiatry, 60:1079-88; Goldberg et al., 2007, Am. J. Psychiatry, 164:1348-55; Nierenberg et al., 2006, Am. J. Psychiatry, 163:210-216). […]
# [3] = test system: patients with Bipolar I Disorder, Most Recent Episode Depressed; format: in vivo, human
# Experimental: (§2) The YMRS is an 11 item scale designed to measure core manic symptoms (Young et al., Br. J. Psychiatry, 133:429-435). A cumulative score of 15 or greater on the YMRS was considered evidence of a treatment emergent affective switch. The HAM-A scale is a measure of global anxiety, including cognitive and somatic symptoms.
# as §1
# Informed consent was provided by all patients. […]
# [4] = test system: patients with Bipolar I Disorder, Most Recent Episode Depressed; assay: Same six-week study: Hamilton Anxiety Scale (HAM-A); format: in vivo, human
# Experimental: as §2
# as §1, with “After the trial period, patients were eligible to initiate therapy for bipolar disease and a follow-up visit occurred at week ten.” left out
# The effect on anxiety in uridine-treated bipolar I depression subjects in comparison to placebo was evaluated using the mean HAM-A scores for each group.
# [5] = test system: patients (e.g. hereditary orotic aciduria); settings: cited from earlier work
# [6] = test system: patients undergoing cancer chemotherapy; settings: cited from earlier work
# [7] = in vivo; cited from earlier work
# [8] = test system: children with mitochondrial disease; settings: 2 g/m^2 three times daily for up to two years; cited from earlier work
# [9] = test system: patients undergoing chemotherapy with 5-fluorouracil; settings: 6 g four times a day; cited from earlier work
# [10] = Wk 10, follow-up a month after treatment concluded
smiles,measurement,setting,value
O=c1ccn([C@@H]2O[C@H](CO)[C@@H](O)[C@H]2O)c(=O)[nH]1 [uridine],"MADRS change from baseline, as percentage of the baseline score, Δ (%)",[1]; Baseline (Study Day 1),0%
same,Average MADRS score,"[1]; Baseline (Study Day 1), all patients",30.28
same,Difference in change from baseline of average MADRS vs placebo (Δ),"[1]; Day 43, subjects with <2 episodes of mania or hypomania",−8.2
same,Difference in change from baseline of average MADRS vs placebo (Δ),"[1]; Day 43, subjects with <10 episodes of depression",−1.7
same,Difference in change from baseline of average MADRS vs placebo (Δ),"[1]; Day 43, subjects with ≧10 episodes of depression, p=0.18",5.8
same,"MADRS change from baseline, as percentage of the baseline score, Δ (%)",[1]; Wk 1,−25.8%
same,Average MADRS score,"[1]; Wk 1, oral 2-4 g/day, all patients",22.46
same,"MADRS change from baseline, as percentage of the baseline score, Δ (%)",[1]; Wk 2,−37.9%
same,Average MADRS score,"[1]; Wk 2, oral 2-4 g/day, all patients",18.81
same,"MADRS change from baseline, as percentage of the baseline score, Δ (%)",[1]; Wk 3,−52.5%
same,Average MADRS score,"[1]; Wk 3, oral 2-4 g/day, all patients",15.90
same,"MADRS change from baseline, as percentage of the baseline score, Δ (%)",[1]; Wk 4,−54.0%
same,Average MADRS score,"[1]; Wk 4, oral 2-4 g/day, all patients",13.93
same,"MADRS change from baseline, as percentage of the baseline score, Δ (%)",[1]; Wk 5,−50.6%
same,Average MADRS score,"[1]; Wk 5, oral 2-4 g/day, all patients",14.97
same,"MADRS change from baseline, as percentage of the baseline score, Δ (%)",[1]; Wk 6,−58.1%
same,Average MADRS score,"[1]; Wk 6 (end of treatment), oral 2-4 g/day, all patients",12.69
same,Average MADRS score,[1]; [10],15.91
same,"MADRS change from baseline, as percentage of the baseline score, Δ (%)",[1]; [10],−47.5%
same,Effect size from MERM change in mean MADRS score compared to placebo,"[1]; baseline adjusted as a covariate, all patients",0.43
same,Rebound in the MADRS assessment after end of dosing,[1]; final assessment 4 weeks after study drug administration was completed,no rebound
same,Difference of the mean MADRS scores in comparison to placebo (primary efficacy outcome),"[1]; mixed effects repeat measures, day 1 to day 43, total scores p=0.011, percent change from baseline p=0.014",statistically significant
same,Improvement in MADRS score (Uridine vs Placebo),"[1]; patients with <5 manic episodes, Day 1",−0.64
same,Improvement in MADRS score (Uridine vs Placebo),"[1]; patients with <5 manic episodes, Day 8",−3.57
same,Improvement in MADRS score (Uridine vs Placebo),"[1]; patients with <5 manic episodes, Day 15",−1.39
same,Improvement in MADRS score (Uridine vs Placebo),"[1]; patients with <5 manic episodes, Day 22",−1.20
same,Improvement in MADRS score (Uridine vs Placebo),"[1]; patients with <5 manic episodes, Day 29",−1.76
same,Improvement in MADRS score (Uridine vs Placebo),"[1]; patients with <5 manic episodes, Day 36",−4.62
same,Improvement in MADRS score (Uridine vs Placebo),"[1]; patients with <5 manic episodes, Day 43",−6.56
same,Response (MADRS vs placebo),[1]; patients with a history of fewer than 2 episodes of mania,No positive response
same,Improvement in MADRS score (Uridine vs Placebo),"[1]; patients with ≧5 manic episodes, Day 1",0.37
same,Improvement in MADRS score (Uridine vs Placebo),"[1]; patients with ≧5 manic episodes, Day 8",1.63
same,Improvement in MADRS score (Uridine vs Placebo),"[1]; patients with ≧5 manic episodes, Day 15",4.41
same,Improvement in MADRS score (Uridine vs Placebo),"[1]; patients with ≧5 manic episodes, Day 22",6.33
same,Improvement in MADRS score (Uridine vs Placebo),"[1]; patients with ≧5 manic episodes, Day 29",7.07
same,Improvement in MADRS score (Uridine vs Placebo),"[1]; patients with ≧5 manic episodes, Day 36",3.20
same,Improvement in MADRS score (Uridine vs Placebo),"[1]; patients with ≧5 manic episodes, Day 43 (week 6)",5.88
same,"Treatment response, MADRS change from baseline","[1]; study end (week 6), subset with 15 or more episodes of depression",58%
same,MADRS improvement from baseline,"[1]; study end, subset with <15 historic episodes of depression",58%
same,Difference in mean MADRS scores between treatment and placebo groups,[1]; subset with <15 historic episodes of depression (49 subjects),no appreciable difference
same,Average true difference in mean MADRS (corrected for baseline) vs placebo,"[1]; week 3 to week 6, all patients",3.2 points
same,True difference in mean MADRS vs placebo (Δ),"[1]; week 6 (Day 43), subjects with ≧2 episodes of mania or hypomania, p=0.11",5.7
same,True difference in mean MADRS between groups (uridine vs placebo),[1]; subjects with 15 or more episodes of mania and/or hypomania,9.46
same,True difference in mean MADRS between groups (uridine vs placebo),[1]; subjects with history of 15 or more episodes of depression,6.35
same,True difference in mean MADRS between groups (uridine vs placebo),[1]; total score (all subjects),3.04
same,Mean change of MADRS from baseline,"[1]; week 6 end of study, all patients",17.6 points
same,"Mean change of MADRS from baseline (treatment response), percent",[1]; week 6 end of study,58%
same,"Mean change of MADRS from baseline (treatment response), percent","[1]; week 6 end of study, listed as RG2417",58.1%
same,Average improvement on MADRS over placebo,"[1]; all patients in the study, p=0.01",3.0 points
same,Average improvement on MADRS over placebo,"[1]; patients with more than 5 episodes of depression (n=50), p<0.001",5.5 points
same,"Change in CGI vs placebo, MERM analysis of the treatment period","[2]; CGI-BP-C overall, p=0.044",significant difference
same,Average CGI-C-BP (Depression),[2]; Wk 1,3.05
same,Average CGI-C-BP (Overall),[2]; Wk 1,3.19
same,Average CGI-C-BP (Depression),[2]; Wk 2,2.72
same,Average CGI-C-BP (Overall),[2]; Wk 2,2.92
same,Average CGI-C-BP (Depression),[2]; Wk 3,2.31
same,Average CGI-C-BP (Overall),[2]; Wk 3,2.45
same,Average CGI-C-BP (Depression),[2]; Wk 4,2.10
same,Average CGI-C-BP (Overall),[2]; Wk 4,2.33
same,Average CGI-C-BP (Depression),[2]; Wk 5,2.14
same,Average CGI-C-BP (Overall),[2]; Wk 5,2.31
same,Average CGI-C-BP (Depression),[2]; Wk 6,2.03
same,Average CGI-C-BP (Overall),[2]; Wk 6,2.21
same,Exacerbation of mean YMRS on treatment,[3]; in vivo,did not exacerbate the mean YMRS
same,"Change in YMRS from baseline in comparison to placebo, MERM","[3]; while on treatment, p=0.025",significant decrease
same,"Mean HAM-A score vs placebo, MERM over the treatment period",[4],no difference between groups
same,Effect of higher dosages in some patients,[5]; dosages higher than 1000 mg/kg/day,mild diarrhea
same,"Toxic effects of pure uridine, long-term experience",[5]; dosages of up to 1000 mg/kg/day,no known toxic effects
same,Plasma uridine levels,"[5]; oral, doses greater than 240 mg/kg",60 to 80 µM
same,Side effects noted with high dose oral uridine,"[5]; oral, typically at doses greater than 240 mg/kg",diarrhea and abdominal cramps
same,Main side effects seen with IV uridine,[6],infusion site phlebitis and transient shivering and fever
same,Sustained elevations in plasma uridine,"[6]; intravenous, cancer chemotherapy context","exceeding 2,000 μM"
same,Volume distribution,[7],around 0.634 liters/kg
"CC(=O)OC[C@H]1O[C@@H](n2ccc(=O)[nH]c2=O)[C@H](OC(C)=O)[C@@H]1OC(C)=O [TAU, Triacetyluridine]",Adverse events,[8],no adverse events were reported
same,Adverse effects,[9],no adverse effects
